Data on one molecule can be found in patent US7510843B2, “Use of a polypeptide for detecting, preventing or treating a pathological condition associated with a degenerative, neurological or autoimmune disease” (Biomerieux S.A., priority 1999, dated 2009).

Each structure is given as a SMILES string.

The subject of assay [1] is GM2AP and Saposin B proteins in the urines. Description: Elisa assay of GM2AP and Saposin B in the urine of an MS patient after a treatment flash. It counts as in vivo, human. To be noted: MS patient No. 2, progressive form, up to 23 days; increase again, high at D60. The text has this:
(§1) Urines of this patient were collected during the progression of their disease. The patient was hospitalized on D0 for an attack.

Assay [2] is described as follows: Clinical monitoring of an MS patient after a treatment flash. The format is in vivo, human. To be noted: MS patient No. 2, progressive form, flash on D1 after attack; worsening signs at D60.
Excerpt: as §1

As to `O=P1(N(CCCl)CCCl)NCCCO1` (centres unmarked) [Endoxan, cyclophosphamide], the “GM2AP and Saposin B concentrations in urine over time after the flash” value in assay [1] is “decrease gradually over time”. The “clinical effect of the flash” value in assay [2] was “clinical improvement”.
